Measured values taken from patent US20160089377A1, “THERAPEUTIC TARGETING OF THE MTOR PATHWAY IN NEURODEVELOPMENTAL AND NEUROPSYCHIATRIC DISEASE” (THE TRUSTEES OF COLUMBIA UNIVERISTY IN THE CITY OF NEW YORK, priority 2013, published 2016).
“Also recorded” adds a separate entry of the source.

How the values were obtained:
Format in all cases: in vivo
[1] = system: layer V pyramidal neurons; assay: Excitation-inhibition correlation, whole-cell recordings from slices of treated adult mice
Procedure: (§1) All mice were treated with either WYE125132 or vehicle for a period of 2 weeks after which the animals were euthanized and thalamocortical slices were prepared. Briefly, animals were anesthetized, decapitated and the brain quickly placed into ice-cold dissection buffer containing (in mM): 75 sucrose, 87 NaCl, 2.5 KCl, 1.25 NaH2PO4, 0.5 CaCl2, 7 MgCl2 6H2O, 25 NaHCO3, 10 dextrose, bubbled with 95% O2/5% CO2 (pH 7.4). Slices (400 μm) were prepared with a vibratome (Leica, VT1200S), placed in 33-35° C. for artificial cerebrospinal fluid (ACSF, in mM: 124 NaCl, 2.5 KCl, 1.25 NaH2PO4, 2.5 CaCl2, 1.5 MgSO4 7H2O, 26 NaHCO3, and 10 dextrose) for <30 min; then returned to room temperature >1 hr before use. Slices were then transferred to the recording chamber and perfused (2.0-2.5 ml min-1) with oxygenated ACSF at 33-35° C. and given 30 min to stabilize. Somatic whole-cell recordings were made from layer 5 pyramidal cells in voltage and current clamp mode with a Multiclamp 700B amplifier (Molecular Devices). Selection was based on morphology and electrophysiological criteria. Patch pipettes (3-8MΩ) contained a current clamp solution. Data were filtered at 2 kHz, digitized at 10 kHz and analyzed with Clampfit. Cells were excluded from analysis if Ri or Rs changed by >25% over the course of the recording. Excitatory post-synaptic currents or potentials (EPSCs/Ps) were evoked by extracellular stimulation (0.01-1 ms, 1-10V) with a 4×1 array of electrodes placed in layer 4, and straddling the patched layer 5 neuron. Across mice we compared spontaneous and evoked inhibitory responses by clamping the membrane potential of the cell to sub-threshold levels. Furthermore, we compared inhibition generated by each stimulation electrode, to the corresponding amount of excitation when the cell was held at −80 mV. Lastly, we tested Spike-Timing Dependent Plasticity (STDP).
(§2) euthanized. For the electrophysiology and western blot rescue experiments, adult mice were gavaged for 14 consecutive days after which they were euthanized.
Whole cell recordings were made from layer V pyramidal cells of the temporal cortex. Focal extracellular stimulation was applied and excitatory and inhibitory currents were measured across various stimulation intensities to assess E:I balance. […]
recorded cell. […] We assessed this relation over multiple inputs onto the recorded postsynaptic neuron from different regions of the cortical brain slice, by systematically varying the intensity of extracellular stimulation, such that higher intensities evoke responses from larger subpopulations of presynaptic inputs (House et al., 2011). […]

[2] = system: phosphorylated ribosomal protein S6 (pS6); assay: Immunoblot of phosphorylated S6 in cortex after WYE125132 treatment; details: cortex of Cntnap2-/- and Cntnap2+/- mice, 14 consecutive days gavage 10 mg/kg
Procedure: Cntnap2 mutant and WT mice were obtained from heterozygous crossings and were born with the expected Mendelian frequencies. The three obtained genotypes were housed together. Mice were treated with p.o. gavaging once per day with either WYE125132 (10 mg/kg) or vehicle. All procedures involving animals were performed in accordance with the Columbia University/New York State Psychiatric Institute animal research committee.
as §2
Western blot analysis of mouse brain tissue and immunocytochemistry in human brain tissue was performed using standard methods.
We examined whether we can reverse the dramatic enlargement of the pyramidal cell somata by targeting the mTOR overactivation. To this end, mice were gavaged daily with WYE125132 from P12 until P33-36 after which their brains were harvested for further analysis.

[3] = system: layer V pyramidal neurons; assay: Spike-timing-dependent LTP, whole-cell recordings from slices of treated adult mice
Procedure: as §1, §2
Whole cell recordings were made from layer V pyramidal cells of the temporal cortex. Focal extracellular stimulation was applied and excitatory and inhibitory currents were measured across various stimulation intensities to assess E:I balance. For plasticity experiments, extracellular stimulation was paired with postsynaptic action potentials (elicited by current injection via the recording electrode) less than 10 ms after the onset of the EPSP 60 times at 0.1 hz. Baseline strength was compared to synaptic strength 6-15 mins after spike pairing.
We investigated whether we could reverse the impairment in neuronal network activity and plasticity by targeting the overactivation of the mTOR pathway with WYE125132. […]

[4] = Caspr2-/- / Cntnap2 mutant mice treated with WYE125132 for 2 weeks
[5] = WT littermates treated with WYE125132 for 2 weeks

## CNC(=O)Nc1ccc(-c2nc(N3CC4CCC(C3)O4)c3cnn(C4CCC5(CC4)OCCO5)c3n2)cc1 [WYE125132]
[1]; [4]
  correlation between excitation and inhibition (in words): high correlation between excitation and inhibition
[1]; [5]
  correlation between excitation and inhibition (in words): high correlation between excitation and inhibition
[1]; WYE125132-treated Cntnap2-/- mouse, single representative recording
  linear correlation coefficient r between excitation and inhibition (representative recording): 0.72
[1]; WYE125132-treated Cntnap2-/- mutant mice, 14 days gavage, n=12, error s.e.m.
  linear correlation coefficient r between excitation and inhibition (summary): 0.43±0.08
[2]
  phosphorylation of S6 (Phospho-S6: S6): reverses phosphorylation of S6 to levels observed in WT littermates; also recorded: completely reversed
[3]; [4]
  LTP induction (in words): robust LTP; also recorded: successfully induced LTP
[3]; [5]
  LTP induction (in words): robust LTP
[3]; WYE125132-treated Cntnap2-/- mouse, single example whole-cell recording
  synaptic modification after spike pairing (example recording): 35.1 % increase
[3]; WYE125132-treated Cntnap2-/- mutant mice, n=8, 6-15 min after pairing, error s.e.m.
  synaptic modification after spike pairing (LTP summary): 45.4±16.4 % increase
